Laboratory results reported in patent US20150148311A1, “NON-SYSTEMIC TGR5 AGONISTS” (Ardelyx, Inc., priority 2011, published 2015).

How the values were obtained:
[1] = molecular target: T1, human TGR5 (Homo sapiens, UniProt Q8TDU6); experiment: Cell-based TGR5 assay, HEK293 cells stably expressing human TGR5, cAMP by HTRF; details: HEK293 cells stably expressing human TGR5, 30 min at 37 C, 0.05 nM to 10 μM, read-out: pEC50 Human TGR5 (converted)
T1 construct: expressed in transfected cells
T1 sequence (Q8TDU6 1-330): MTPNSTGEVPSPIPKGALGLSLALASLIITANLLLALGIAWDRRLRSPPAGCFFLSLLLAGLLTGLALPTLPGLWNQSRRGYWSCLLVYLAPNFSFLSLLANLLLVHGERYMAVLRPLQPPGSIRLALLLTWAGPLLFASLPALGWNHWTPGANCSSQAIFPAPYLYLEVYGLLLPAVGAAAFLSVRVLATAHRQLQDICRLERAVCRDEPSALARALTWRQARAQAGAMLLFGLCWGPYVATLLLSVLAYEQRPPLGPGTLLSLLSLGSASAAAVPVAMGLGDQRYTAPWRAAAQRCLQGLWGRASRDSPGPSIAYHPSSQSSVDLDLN
Outline: (§1)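 cAMP HTRF read-out, converted to concentration via standard curve, after a 30 min, 37 °C compound exposure in HBSS with 10 mM HEPES pH 7.4 and 0.5 mM IBMX, compounds serially diluted 3-fold from 10 mM DMSO stock then 100-fold. Cells: stable human TGR5 HEK293, or NCI-H716 expressing TGR5 endogenously.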

[2] = molecular target: T2, human FXR (Homo sapiens, UniProt Q96RI1); experiment: FXR counter screen, cell-based luciferase reporter assay; details: cells expressing human FXR and FXR-responsive luciferase reporter, 0.4 to 50 μM test compound; read-out: pEC50 human FXR (converted)
T2 construct: purchased Indigo Biosciences (State College, Pa.)
T2 sequence (Q96RI1 1-486): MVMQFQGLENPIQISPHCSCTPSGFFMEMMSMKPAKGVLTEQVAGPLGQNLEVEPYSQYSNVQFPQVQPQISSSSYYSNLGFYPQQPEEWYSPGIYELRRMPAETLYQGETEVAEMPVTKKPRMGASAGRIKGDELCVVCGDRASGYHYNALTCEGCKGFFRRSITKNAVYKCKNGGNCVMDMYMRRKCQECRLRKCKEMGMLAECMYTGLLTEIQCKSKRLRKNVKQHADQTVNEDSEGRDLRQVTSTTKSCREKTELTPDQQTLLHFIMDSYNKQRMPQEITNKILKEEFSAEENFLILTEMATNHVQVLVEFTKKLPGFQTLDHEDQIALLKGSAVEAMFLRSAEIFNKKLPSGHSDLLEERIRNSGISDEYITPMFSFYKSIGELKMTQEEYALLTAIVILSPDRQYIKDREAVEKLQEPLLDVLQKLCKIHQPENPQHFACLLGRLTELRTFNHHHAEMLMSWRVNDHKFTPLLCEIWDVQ
Protocol: FXR: The ability of test compounds to activate FXR (NR1H4) was measured using a cell-based assay kit obtained from Indigo Biosciences (State College, Pa.).

[3] = molecular target: T3, endogenously expressed TGR5 in NCI H716 (Homo sapiens, UniProt Q8TDU6); experiment: Cell-based TGR5 assay, NCI-H716 cells endogenously expressing human TGR5, cAMP by HTRF; details: 30 min at 37 C, 22 nM to 50 μM, read-out: pEC50 endogenously expressed TGR5 in NCI H716 (converted)
T3 construct: human caecum carcinoma cell line NCI-H716 which endogenously expresses human TGR5; endogenous in cells; host or cells: NCI-H716
T3 sequence (Q8TDU6 1-330): T1 sequence (Q8TDU6 1-330)
Outline: as §1

[4] = test system: C57BL/6 male mice; experiment: In vivo gallbladder measurement (weight) 8 h post dose; details: 30 mg/kg; for Gallbladder weight/body weight fold change over vehicle, Significance: 8 h, vs. vehicle, one-way ANOVA, Dunnett's test; for Gallbladder weight/body weight fold change over vehicle, Mean: food removed, eight hours after dosing
Source text: (§2) Eight hours later, each mouse was heavily anesthetized with isoflurane, the peritoneal cavity was opened and the gallbladder, with its entire contents, was carefully excised and weighed. Blood was collected from the left ventricle of the heart and processed to plasma in EDTA-coated tubes containing aprotinin and DPPIV inhibitor for measurement of total GLP-1 (K150FCC; Meso Scales Discovery, Gaithersburg Md.).

[5] = molecular target: T4, human IBAT (Homo sapiens, UniProt Q12908); experiment: IBAT counter screen, [3H]taurocholic acid uptake in IBAT-transfected HEK293 cells; assay type: cell-based; details: read-out: pEC50 human IBAT (converted)
T4 construct: expressed in transfected cells; host or cells: HEK293
T4 sequence (Q12908 1-348): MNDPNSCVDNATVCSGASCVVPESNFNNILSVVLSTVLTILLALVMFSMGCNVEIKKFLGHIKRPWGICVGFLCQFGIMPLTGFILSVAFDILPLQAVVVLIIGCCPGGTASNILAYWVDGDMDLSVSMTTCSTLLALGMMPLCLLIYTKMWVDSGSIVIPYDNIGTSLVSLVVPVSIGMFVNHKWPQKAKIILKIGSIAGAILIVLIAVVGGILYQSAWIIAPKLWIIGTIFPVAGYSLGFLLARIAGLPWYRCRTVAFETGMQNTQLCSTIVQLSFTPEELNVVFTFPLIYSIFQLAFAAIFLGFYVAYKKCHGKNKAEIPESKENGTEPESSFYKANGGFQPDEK
Protocol: Following a 40-min incubation, the solution was removed, and the cells were washed twice with uptake buffer. Cells were lysed by addition of 20 μL 0.1% Tween 80 followed by 100 μL scintillation fluid and counted using a TopCount (Perkin Elmer).

[6] = Compound concentration in gall bladder, LC-MS/MS, 8 h post dose; assay type: in vivo; details: 30 mg/kg; for Number of Mice with Gallbladder Concentration < LLOQ: mice below LLOQ / mice in group; for concentration at 8 h: male, C57BL/6, mouse, with contents, mice, gallbladder homogenate, read-out: Mean Example Gallbladder Concentration
Outline: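 Gallbladder with its contents excised from isoflurane-anesthetized mice 8 h after dosing and homogenized in water. Homogenate diluted 1:5, precipitated with acetonitrile and measured by LC-MS/MS. Levels interpolated from per-compound standard curves in vehicle-treated gallbladder homogenate.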

[7] = Compound plasma concentration, LC-MS/MS, 8 h post dose; assay type: in vivo; details: 30 mg/kg; for Number of Mice with Plasma Concentration < LLOQ: mice below LLOQ / mice in group; for concentration at 8 h: male, C57BL/6, mouse, mice, plasma, read-out: Mean Example Plasma Concentration
Outline: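 Blood was taken from the left ventricle 8 h after dosing, under isoflurane anesthesia, into EDTA tubes containing aprotinin and DPPIV inhibitor. Plasma was protein-precipitated with acetonitrile containing an internal standard, and supernatants were analyzed by LC-MS/MS against a plasma standard curve.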

[8] = test system: total GLP-1; experiment: In vivo GLP-1 secretion, plasma total GLP-1 8 h post dose; details: Mus musculus, C57BL/6 male mice, food removed, plasma total GLP-1 eight hours after dosing, read-out: GLP-1 fold change over vehicle, Mean
Source text: as §2

## CN(C[C@H](O)[C@@H](O)[C@H](O)[C@H](O)CO)C(=O)CCc1cc(Cl)c(OCC2(C(=O)N3CCN(C4CC4)c4ccccc43)CC2)cc1Cl [Example 34, 3-[2,5-dichloro-4-([1-[(4-cyclopropyl-1,2,3,4-tetrahydroquinoxalin-1-yl)carbonyl]cyclopropyl]methoxy)phenyl]-N-methyl-N-[(2S,3R,4R,5R)-2,3,4,5,6-pentahydroxyhexyl]propanamide]
[1]
  EC50: 126 to 1000 nM
[2]
  EC50: > 50.1 µM
[3]
  EC50: 1260 to 50100 nM

## O=C(CCc1cc(Cl)c(COC2(C(=O)N3CCN(C4CC4)c4ccccc43)CC2)cc1Cl)NC[C@H](O)[C@@H](O)[C@H](O)[C@H](O)CO [Example 88, 3-[2,5-dichloro-4-([1-[(4-cyclopropyl-1,2,3,4-tetrahydroquinoxalin-1-yl)carbonyl]cyclopropoxy]methyl)phenyl]-N-[(2S,3R,4R,5R)-2,3,4,5,6-pentahydroxyhexyl]propanamide]
[1]
  EC50: < 100 nM
[2]
  EC50: > 50.1 µM
[3]
  EC50: < 100 nM

## O=C(N1CCN(C2CC2)c2ccccc21)C1(NCc2cc(Cl)ccc2Cl)CC1 [Example 26, (4-cyclopropyl-3,4-dihydroquinoxalin-1(2H)-yl)(1-((2,5-dichlorobenzyl)amino)cyclopropyl)methanone]
[4]
  Gallbladder weight/body weight fold change over vehicle, Significance: * (* p < 0.05 vs. vehicle; One-way ANOVA followed by Dunnett's test)
  Gallbladder weight/body weight fold change over vehicle, Mean: 1.6 fold change over vehicle
[5]
  EC50: > 25.1 µM
[6]
  Number of Mice with Gallbladder Concentration < LLOQ: 0/8
  concentration at 8 h: 30 nM
[1]
  EC50: < 100 nM
[7]
  Number of Mice with Plasma Concentration < LLOQ: 0/8
  concentration at 8 h: 9.1 ng/mL
[2]
  EC50: > 50.1 µM
[8]
  response vs control in vivo at 30 mg/kg: 160%
[3]
  EC50: < 100 nM

## O=C(CCCCc1cc(Cl)c(CNC2(C(=O)N3CCN(C4CC4)c4ccccc43)CC2)cc1Cl)NC[C@H](O)[C@@H](O)[C@H](O)[C@H](O)CO [Example 218]
[4]
  Gallbladder weight/body weight fold change over vehicle, Significance: n.s.
  Gallbladder weight/body weight fold change over vehicle, Mean: 1.0 fold change over vehicle
[5]
  EC50: > 25.1 µM
[6]
  Number of Mice with Gallbladder Concentration < LLOQ: 0/8
  concentration at 8 h: 100 nM
[1]
  EC50: < 100 nM
[7]
  Number of Mice with Plasma Concentration < LLOQ: 2/8
  concentration at 8 h: 0.7 ng/mL
[8]
  response vs control in vivo at 30 mg/kg: 140%
[3]
  EC50: < 100 nM

## CN(C[C@H](O)[C@@H](O)[C@H](O)[C@H](O)CO)C(=O)NCCCCOc1cc(Cl)c(CN2CSC[C@H]2C(=O)N2CCN(C3CC3)c3ccccc32)cc1Cl [Example 191]
[4]
  Gallbladder weight/body weight fold change over vehicle, Significance: n.s.
  Gallbladder weight/body weight fold change over vehicle, Mean: 1.0 fold change over vehicle
[6]
  Number of Mice with Gallbladder Concentration < LLOQ: 0/8
  concentration at 8 h: 100 nM
[1]
  EC50: < 100 nM
[7]
  Number of Mice with Plasma Concentration < LLOQ: 8/8
  concentration at 8 h: < 0.5 ng/mL
[8]
  response vs control in vivo at 30 mg/kg: 150%
[3]
  EC50: 126 to 1000 nM

## CN(C[C@H](O)[C@@H](O)[C@H](O)[C@H](O)CO)C(=O)CCc1cc(Cl)c(COC2(C(=O)N3CCN(C4CC4)c4ccccc43)CC2)cc1Cl [Example 80, 3-[2,5-dichloro-4-([1-[(4-cyclopropyl-1,2,3,4-tetrahydro-quinoxalin-1-yl)carbonyl]cyclopropoxy]methyl)phenyl]-N-methyl-N-[(2S,3R,4R,5R)-2,3,4,5,6-pentahydroxyhexyl]propanamide]
[1]
  EC50: < 100 nM
[2]
  EC50: > 50.1 µM
[3]
  EC50: 126 to 1000 nM

## O=C(N1CCN(C2CC2)c2ccccc21)C1(OCc2cc(Cl)ccc2Cl)CC1 [Example 9, (4-cyclopropyl-3,4-dihydroquinoxalin-1(2H)-yl)(1-(2,5-dichlorobenzyloxyl)cyclopropyl)methanone]
[5]
  EC50: > 25.1 µM
[1]
  EC50: < 100 nM
[2]
  EC50: > 50.1 µM
[3]
  EC50: 126 to 1000 nM

## O=C(CCc1cc(Cl)c(OCC2(C(=O)N3CCN(C4CC4)c4ccccc43)CC2)cc1Cl)NC[C@H](O)[C@@H](O)[C@H](O)[C@H](O)CO [Example 75, 3-[2,5-dichloro-4-([1-[(4-cyclopropyl-1,2,3,4-tetrahydroquinoxalin-1-yl)carbonyl]cyclopropyl]methoxy)phenyl]-N-[(2S,3R,4R,5R)-2,3,4,5,6-pentahydroxyhexyl]propanamide]
[1]
  EC50: 126 to 1000 nM
[2]
  EC50: > 50.1 µM
[3]
  EC50: 126 to 1000 nM

## O=C(N1CCN(C2CC2)c2ccccc21)C1(COc2cc(Cl)ccc2Cl)CC1 [Example 32, 1-cyclopropyl-4-[[1-(2,5-dichlorophenoxymethyl)cyclopropyl]carbonyl]-1,2,3,4-tetrahydroquinoxaline]
[1]
  EC50: < 100 nM
[2]
  EC50: > 50.1 µM
[3]
  EC50: 126 to 1000 nM

## O=C(CCCCc1cc(Cl)c(COC2(C(=O)N3CCN(C4CC4)c4ccccc43)CC2)cc1Cl)NC[C@H](O)[C@@H](O)[C@H](O)[C@H](O)CO [Example 193]
[4]
  Gallbladder weight/body weight fold change over vehicle, Significance: n.s.
  Gallbladder weight/body weight fold change over vehicle, Mean: 1.1 fold change over vehicle
[5]
  EC50: > 25.1 µM
[6]
  Number of Mice with Gallbladder Concentration < LLOQ: 0/8
  concentration at 8 h: 900 nM
[1]
  EC50: < 100 nM
[7]
  Number of Mice with Plasma Concentration < LLOQ: 5/8
  concentration at 8 h: 5.2 ng/mL
[8]
  response vs control in vivo at 30 mg/kg: 90%
